Literature values as cited in US7388012B2, “(Hydrazido)(amino)thiophene compounds” (OSI Pharmaceuticals, Inc., priority 2004, dated 2008).
Where a name gives a salt, the structure may show the parent alone.

How the values were obtained:
[1] = system: MO7e human leukemia cells
[2] = system: MO7e human leukemia cells; remark: listed apart in the source

## Cc1ccc(NC(=O)c2ccc(CN3CCN(C)CC3)cc2)cc1Nc1nccc(-c2cccnc2)n1 [Gleevec, imatinib mesylate]
[1]
  GM-CSF stimulated growth of MO7e human leukemia cells: not affected
[2]; Kit ligand-stimulated
  Kit ligand-stimulated growth of MO7e human leukemia cells: inhibited
[2]; Kit ligand-stimulated conditions
  apoptosis of MO7e human leukemia cells: induces apoptosis
